Results on 23 molecules are retold here after patent EP4707277A1, “NOVEL HETEROCYCLIC AMINE DERIVATIVES AND PHARMACEUTICAL COMPOSITION COMPRISING SAME” (Daewoong Pharmaceutical Co., Ltd., priority 2023, dated 2024).

One test addresses T1, ITK (Homo sapiens, UniProt Q08881).
T1 construct: purchased Signalchem I13-11G-10
T1 sequence (Q08881 1-620): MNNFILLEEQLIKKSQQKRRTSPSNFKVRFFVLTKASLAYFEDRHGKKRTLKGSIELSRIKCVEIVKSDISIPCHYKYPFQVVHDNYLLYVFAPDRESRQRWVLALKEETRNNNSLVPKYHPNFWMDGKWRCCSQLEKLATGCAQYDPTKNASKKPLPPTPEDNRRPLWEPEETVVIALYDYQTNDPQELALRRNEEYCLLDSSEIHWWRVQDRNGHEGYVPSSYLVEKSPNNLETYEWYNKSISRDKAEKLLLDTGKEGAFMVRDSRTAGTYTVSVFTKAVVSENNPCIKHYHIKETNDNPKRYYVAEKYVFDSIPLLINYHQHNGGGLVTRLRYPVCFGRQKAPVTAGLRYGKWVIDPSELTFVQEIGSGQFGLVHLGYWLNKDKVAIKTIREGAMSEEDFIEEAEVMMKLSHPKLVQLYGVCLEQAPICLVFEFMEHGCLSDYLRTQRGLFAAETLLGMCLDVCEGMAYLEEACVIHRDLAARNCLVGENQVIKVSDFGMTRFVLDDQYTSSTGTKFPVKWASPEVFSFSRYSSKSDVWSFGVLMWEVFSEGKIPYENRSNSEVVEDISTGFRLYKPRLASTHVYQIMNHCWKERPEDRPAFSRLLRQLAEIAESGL
Kind of test: Inhibitory activity against ITK, ADP-Glo Kinase system (Promega). It counts as biochemical. In outline: (§1)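 ADP-Glo luminescent ADP detection with recombinant human ITK (4 ng/reaction) or BTK (10 ng/reaction) and poly(Glu4,Tyr1) substrate at 0.2 µg/µl. Buffer: Tris pH 7.5, MgCl2, MnCl2, BSA, DTT. ATP 1 mM or Km (BTK 10 µM, ITK 25 µM); 1% DMSO; 1 h at 30°C; IC50 from curve fit.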
(In general: ADP-Glo turns the ADP formed in a reaction into a luminescent signal.)

The next test concerns the target T2, BTK (Homo sapiens, UniProt Q06187).
T2 construct: purchased Signalchem B10-10H
Description: Inhibitory activity against BTK, ADP-Glo Kinase system (Promega). The test is classed as biochemical. In outline: as §1

[1] abbreviates: 1mM ATP, read-out: ITK IC50(nM) 1mM ATP.
[2] abbreviates: 1mM ATP, read-out: BTK IC50(nM) 1mM ATP.
Where [3] appears, read: Km ATP (ITK: 25uM), read-out: ITK IC50(nM) Km ATP.
Setting [4] is: Km ATP (BTK: 10 uM), read-out: BTK IC50(nM) Km ATP.

Where two headings read alike, the source gives them in different places.

T2 sequence (Q06187 whole entry): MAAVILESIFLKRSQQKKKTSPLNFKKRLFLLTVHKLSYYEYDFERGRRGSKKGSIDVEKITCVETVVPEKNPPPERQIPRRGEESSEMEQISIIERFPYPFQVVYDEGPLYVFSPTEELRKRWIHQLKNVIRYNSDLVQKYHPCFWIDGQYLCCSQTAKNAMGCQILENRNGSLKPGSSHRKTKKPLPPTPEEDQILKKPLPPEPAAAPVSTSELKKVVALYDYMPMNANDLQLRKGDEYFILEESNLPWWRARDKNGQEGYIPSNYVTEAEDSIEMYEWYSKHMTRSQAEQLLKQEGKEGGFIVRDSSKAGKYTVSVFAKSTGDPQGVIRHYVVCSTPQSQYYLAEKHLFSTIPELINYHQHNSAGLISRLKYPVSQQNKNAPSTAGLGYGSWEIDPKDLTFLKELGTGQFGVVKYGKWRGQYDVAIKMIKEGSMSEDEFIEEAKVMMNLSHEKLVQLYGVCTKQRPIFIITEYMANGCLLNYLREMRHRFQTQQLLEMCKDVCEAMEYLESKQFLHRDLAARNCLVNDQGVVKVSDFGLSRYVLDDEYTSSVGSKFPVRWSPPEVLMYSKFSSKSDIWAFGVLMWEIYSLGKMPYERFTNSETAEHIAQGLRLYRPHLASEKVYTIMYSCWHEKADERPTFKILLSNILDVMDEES

For orientation: IC50 means the concentration at which inhibition is half-maximal. As for `C=CC(=O)N1CCCC1COc1nc(Nc2ncc(C)s2)cc2c1ccn2C1CCCC1` (stereo not drawn) [Example 217, 1-(2-(((1-cyclopentyl-6-((5-methylthiazol-2-yl)amino)-1H-pyrrolo[3,2-c]pyridin-4-yl)oxy)methyl)pyrrolidin-1-yl)prop-2-en-1-one], the values for the IC50 on ITK (setting [1]) and at BTK (setting [2]) were 20 to 100 nM and at most 20 nM, respectively.
With `C=CC(=O)N1CC=C(c2nc(Nc3ncc(C)s3)cc3c2ccn3C)C1` [Example 3, 1-(3-(1-methyl-6-((5-methylthiazol-2-yl)amino)-1H-pyrrolo[3,2-c]pyridin-4-yl)-2,5-dihydro-1H-pyrrol-1-yl)prop-2-en-1-one], the IC50 at ITK (setting [3]) and at BTK (setting [4]) was 100 to 500 nM each time.
As to `C=CC(=O)N1C2C=C(c3nc(Nc4ncc(C)s4)cc4c3ccn4CC3CC3)CC1CC2` (stereo not drawn) [Example 39, 1-(3-(1-(cyclopropylmethyl)-6-((5-methylthiazol-2-yl)amino)-1H-pyrrolo[3,2-c]pyridin-4-yl)-8-azabicyclo[3.2.1]oct-2-en-8-yl)prop-2-en-1-one], the IC50 on ITK (setting [1]) and at BTK (setting [2]) was at most 20 nM throughout.
With `C=CC(=O)N1CC(C)(Oc2nc(Nc3ncc(C)s3)cc3c2ccn3CCC(C)C)C1` [Example 177, 1-(3-((1-isopentyl-6-((5-methylthiazol-2-yl)amino)-1H-pyrrolo[3,2-c]pyridin-4-yl)oxy)-3-methylazetidin-1-yl)prop-2-en-1-one], the IC50 on ITK (setting [1]) and at BTK (setting [2]) was at most 20 nM each time.
Take `C=CS(=O)(=O)N1C[C@H](F)[C@H](Oc2nc(Nc3ncc(C)s3)cc3c2ccn3CC(C)C)C1` [Example 228, N-(4-(((3R,4S)-4-fluoro-1-(vinylsulfonyl)pyrrolidin-3-yl)oxy)-1-isobutyl-1H-pyrrolo[3,2-c]pyridin-6-yl)-5-methylthiazol-2-amine]: the IC50 on ITK (setting [1]) and at BTK (setting [2]) was at most 20 nM each time.
Turning to `C=CC(=O)Nc1cc(-c2nc(Nc3ncc(C)s3)cc3c2ccn3C)ccc1F` [Example 54, N-(2-fluoro-5-(1-methyl-6-((5-methylthiazol-2-yl)amino)-1H-pyrrolo[3,2-c]pyridin-4-yl)phenyl)acrylamide], the half-inhibitory concentration (IC50) on ITK (setting [3]) was 20 to 100 nM; on BTK (setting [4]), at most 20 nM.
For `C=CC(=O)Nc1c(F)ccc(-c2nc(Nc3ncc(C)s3)cc3c2ccn3C)c1F` [Example 57, N-(2,6-difluoro-3-(1-methyl-6-((5-methylthiazol-2-yl)amino)-1H-pyrrolo[3,2-c]pyridin-4-yl)phenyl)acrylamide], in that order: at most 20 nM and at most 20 nM.
On to `C=CC(=O)N1C[C@H](F)[C@H](Oc2nc(Nc3ncc(C)s3)cc3c2ccn3C2CCCC2)C1` [Example 109, 1-((3R,4S)-3-((1-cyclopentyl-6-((5-methylthiazol-2-yl)amino)-1H-pyrrolo[3,2-c]pyridin-4-yl)oxy)-4-fluoropyrrolidin-1-yl)prop-2-en-1-one], for which the half-maximal inhibitory concentration (IC50) on ITK (setting [1]) and on BTK (setting [2]) was at most 20 nM throughout.
For `C=CC(=O)N1C[C@H](F)[C@H](Oc2nc(Nc3cccn(C)c3=O)cc3c2ccn3CC(C)C)C1` [Example 199, 3-((4-(((3R,4S)-1-acryloyl-4-fluoropyrrolidin-3-yl)oxy)-1-isobutyl-1H-pyrrolo[3,2-c]pyridin-6-yl)amino)-1-methylpyridin-2(1H)-one], the IC50 at ITK (setting [1]) and on BTK (setting [2]) was over 500 nM throughout.
Take `Cc1cnc(Nc2cc3c(ccn3CC(C)C)c(O[C@@H]3CN(C(=O)CCl)C[C@@H]3F)n2)s1` [Example 229, 2-chloro-1-((3S,4R)-3-fluoro-4-((1-isobutyl-6-((5-methylthiazol-2-yl)amino)-1H-pyrrolo[3,2-c]pyridin-4-yl)oxy)pyrrolidin-1-yl)ethan-1-one]: the IC50 on ITK (setting [1]) was at most 20 nM; at BTK (setting [2]), 20 to 100 nM.
For `C=CC(=O)N1C[C@@H](F)[C@H](Oc2nc(Nc3ncc(C)s3)cc3c2ccn3CC)C1` [Example 154, 1-((3R,4R)-3-((1-ethyl-6-((5-methylthiazol-2-yl)amino)-1H-pyrrolo[3,2-c]pyridin-4-yl)oxy)-4-fluoropyrrolidin-1-yl)prop-2-en-1-one], in that order: at most 20 nM and at most 20 nM.
For the molecule `C=CC(=O)N1CC[C@H](Oc2nc(Nc3ncc(C)s3)cc3c2ccn3CC2CCOCC2)C1` [Example 133, (S)-1-(3-((6-((5-methylthiazol-2-yl)amino)-1-((tetrahydro-2H-pyran-4-yl)methyl)-1H-pyrrolo[3,2-c]pyridin-4-yl)oxy)pyrrolidin-1-yl)prop-2-en-1-one], the IC50 on ITK (setting [1]) and on BTK (setting [2]) was at most 20 nM each time.
Consider `C=CC(=O)N1CC=C(c2nc(Nc3ncc(C)s3)cc3c2ccn3[C@H](C)CC)CC1` [Example 14, (R)-1-(4-(1-(sec-butyl)-6-((5-methylthiazol-2-yl)amino)-1H-pyrrolo[3,2-c]pyridin-4-yl)-3,6-dihydropyridin-1(2H)-yl)prop-2-en-1-one], for which the IC50 on ITK (setting [3]) and at BTK (setting [4]) was at most 20 nM throughout.
In the case of `C=CC(=O)N1CC=C(c2nc(Nc3ncc(C)s3)cc3c2ccn3CCC(C)(C)C)CC1` [Example 18, 1-(4-(1-(3,3-dimethylbutyl)-6-((5-methylthiazol-2-yl)amino)-1H-pyrrolo[3,2-c]pyridin-4-yl)-3,6-dihydropyridin-1(2H)-yl)prop-2-en-1-one], the half-maximal inhibitory concentration (IC50) was at most 20 nM at ITK (setting [3]) and 20 to 100 nM at BTK (setting [4]).
Turning to `C=CC(=O)Nc1ccc(F)c(-c2nc(Nc3ncc(C)s3)cc3c2ccn3[C@@H](C)CC)c1` [Example 68, (S)-N-(3-(1-(sec-butyl)-6-((5-methylthiazol-2-yl)amino)-1H-pyrrolo[3,2-c]pyridin-4-yl)-4-fluorophenyl)acrylamide], the figures for the concentration for half-maximal inhibition (IC50) on ITK (setting [1]) and at BTK (setting [2]) were 20 to 100 nM and at most 20 nM, respectively.
With `C=CC(=O)N1C[C@@H](F)[C@H](Oc2nc(Nc3ncc(C)s3)cc3c2ccn3CC2(C(F)(F)F)CC2)C1` [Example 120, 1-((3R,4R)-3-fluoro-4-((6-((5-methylthiazol-2-yl)amino)-1-((1-(trifluoromethyl)cyclopropyl)methyl)-1H-pyrrolo[3,2-c]pyridin-4-yl)oxy)pyrrolidin-1-yl)prop-2-en-1-one], the IC50 at ITK (setting [3]) and at BTK (setting [4]) was at most 20 nM each time.
Turning to `C=CC(=O)Nc1cc(-c2nc(Nc3ncc(C)s3)cc3c2ccn3CCC(C)(C)C)c(F)cc1F` [Example 69, N-(5-(1-(3,3-dimethylbutyl)-6-((5-methylthiazol-2-yl)amino)-1H-pyrrolo[3,2-c]pyridin-4-yl)-2,4-difluorophenyl)acrylamide], the half-maximal inhibitory concentration (IC50) on ITK (setting [1]) fell in the range of 20 to 100 nM; at BTK (setting [2]), 100 to 500 nM.
As for `C=CC(=O)N1C[C@H](F)[C@H](Oc2nc(Nc3ncc(C)s3)cc3c2ccn3CC2CC2)C1` [Example 107, 1-((3R,4S)-3-((1-(cyclopropylmethyl)-6-((5-methylthiazol-2-yl)amino)-1H-pyrrolo[3,2-c]pyridin-4-yl)oxy)-4-fluoropyrrolidin-1-yl)prop-2-en-1-one], the IC50 on ITK (setting [1]) and on BTK (setting [2]) was at most 20 nM in each case.
On to `C=CC(=O)N1CC=C(c2nc(Nc3cc(C)ncn3)cc3c2ccn3C(C)C)CC1` [Example 44, 1-(4-(1-isopropyl-6-((6-methylpyrimidin-4-yl)amino)-1H-pyrrolo[3,2-c]pyridin-4-yl)-3,6-dihydropyridin-1(2H)-yl)prop-2-en-1-one], for which the IC50 on ITK (setting [1]) was 100 to 500 nM; at BTK (setting [2]) it was 20 to 100 nM.
In the case of `C=CC(=O)N1CC=C(c2nc(Nc3cc(C(F)(F)F)ccn3)cc3c2ccn3C(C)C)CC1` [Example 48, 1-(4-(1-isopropyl-6-((4-(trifluoromethyl)pyridin-2-yl)amino)-1H-pyrrolo[3,2-c]pyridin-4-yl)-3,6-dihydropyridin-1(2H)-yl)prop-2-en-1-one], the IC50 on ITK (setting [1]) and at BTK (setting [2]) was 20 to 100 nM throughout.
In the case of `C=CC(=O)N1CC(Oc2nc(Nc3ncc(C)s3)cc3c2ccn3C(C)C)C1` [Example 80, 1-(3-((1-isopropyl-6-((5-methylthiazol-2-yl)amino)-1H-pyrrolo[3,2-c]pyridin-4-yl)oxy)azetidin-1-yl)prop-2-en-1-one], the IC50 on ITK (setting [1]), at ITK (setting [3]), at BTK (setting [2]) and at BTK (setting [4]) was at most 20 nM in each case.
For `C=CC(=O)N1C[C@@H](F)[C@H](Oc2nc(Nc3ncc(C)s3)cc3c2ccn3C(C)C)C1` [Example 91, 1-((3R,4R)-3-fluoro-4-((1-isopropyl-6-((5-methylthiazol-2-yl)amino)-1H-pyrrolo[3,2-c]pyridin-4-yl)oxy)pyrrolidin-1-yl)prop-2-en-1-one], the IC50 on ITK (setting [1]) and on BTK (setting [2]) was at most 20 nM each time.
On to `C=CC(=O)N1CC(C)(Oc2nc(Nc3ncc(C)s3)cc3c2ccn3CC)C1` [Example 155, 1-(3-((1-ethyl-6-((5-methylthiazol-2-yl)amino)-1H-pyrrolo[3,2-c]pyridin-4-yl)oxy)-3-methylazetidin-1-yl)prop-2-en-1-one], for which the IC50 at ITK (setting [1]) was 20 to 100 nM; on BTK (setting [2]) it was at most 20 nM.
